Test results: publication PMC8550792, “Evolution of kinase polypharmacology across HSP90 drug discovery” (Cell Chemical Biology, 2021)

How the values were obtained:
Test in all cases: biochemical
Type in all cases: biochemical
382 unique human kinases [1] = target: T1, 382 unique human kinases (Homo sapiens, UniProt Q96RR4); settings: kinase CAMKK2, compound 10 uM; for remaining activity at 10 µM: read-out: % Enzyme Activity (relative to DMSO controls)
T1 construct: purchased Reaction Biology (HotSpot contract assay)
T1 sequence (Q96RR4 whole entry): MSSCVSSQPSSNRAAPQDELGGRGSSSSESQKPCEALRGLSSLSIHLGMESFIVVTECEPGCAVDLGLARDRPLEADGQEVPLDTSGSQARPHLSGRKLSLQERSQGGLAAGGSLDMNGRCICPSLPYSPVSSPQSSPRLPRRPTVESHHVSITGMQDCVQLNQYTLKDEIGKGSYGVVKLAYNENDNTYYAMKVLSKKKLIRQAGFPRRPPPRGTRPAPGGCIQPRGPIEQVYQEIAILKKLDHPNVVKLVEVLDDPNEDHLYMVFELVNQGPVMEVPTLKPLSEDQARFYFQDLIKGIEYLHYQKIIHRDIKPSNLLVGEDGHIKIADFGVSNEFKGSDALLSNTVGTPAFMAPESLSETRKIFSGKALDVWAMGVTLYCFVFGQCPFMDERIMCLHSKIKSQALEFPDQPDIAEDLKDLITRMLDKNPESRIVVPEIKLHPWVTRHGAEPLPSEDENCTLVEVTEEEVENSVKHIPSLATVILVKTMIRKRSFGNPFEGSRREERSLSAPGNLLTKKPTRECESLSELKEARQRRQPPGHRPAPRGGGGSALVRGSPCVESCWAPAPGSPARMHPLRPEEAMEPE

382 unique human kinases [2] = target: T2, 382 unique human kinases (Homo sapiens, UniProt P30530, R499C); settings: AXL (R499C), 10 uM; for remaining activity at 10 µM: read-out: % Enzyme Activity (relative to DMSO controls)
T2 construct: purchased Reaction Biology (HotSpot contract assay)
T2 sequence (P30530 26-894 R499C): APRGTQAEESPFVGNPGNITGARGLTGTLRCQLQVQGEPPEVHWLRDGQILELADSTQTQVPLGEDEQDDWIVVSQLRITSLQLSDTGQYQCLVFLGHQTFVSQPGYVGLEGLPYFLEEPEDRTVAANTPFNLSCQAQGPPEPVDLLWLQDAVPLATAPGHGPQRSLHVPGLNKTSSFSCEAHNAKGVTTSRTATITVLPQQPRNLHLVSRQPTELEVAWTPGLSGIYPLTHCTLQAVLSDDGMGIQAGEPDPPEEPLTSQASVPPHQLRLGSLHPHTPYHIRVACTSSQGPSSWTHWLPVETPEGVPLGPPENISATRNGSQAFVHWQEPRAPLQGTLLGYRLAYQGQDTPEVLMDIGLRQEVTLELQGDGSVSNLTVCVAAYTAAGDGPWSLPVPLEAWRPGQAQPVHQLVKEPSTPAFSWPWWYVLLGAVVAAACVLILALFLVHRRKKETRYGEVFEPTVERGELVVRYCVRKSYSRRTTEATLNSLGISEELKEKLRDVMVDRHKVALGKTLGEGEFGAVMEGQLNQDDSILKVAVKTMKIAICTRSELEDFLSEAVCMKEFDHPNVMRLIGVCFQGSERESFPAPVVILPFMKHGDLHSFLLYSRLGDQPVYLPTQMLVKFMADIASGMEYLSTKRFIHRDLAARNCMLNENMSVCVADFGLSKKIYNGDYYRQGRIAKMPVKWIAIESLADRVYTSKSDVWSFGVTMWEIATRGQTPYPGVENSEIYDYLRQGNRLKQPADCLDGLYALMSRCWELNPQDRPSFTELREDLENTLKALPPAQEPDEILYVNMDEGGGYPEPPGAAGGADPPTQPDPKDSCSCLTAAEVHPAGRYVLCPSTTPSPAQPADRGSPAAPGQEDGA

382 unique human kinases [3] = target: T3, 382 unique human kinases (Homo sapiens, UniProt P10721, A829P); settings: c-Kit (A829P), [ATP] 50 µM, compound 10 uM; for remaining activity at 10 µM: read-out: % Enzyme Activity (relative to DMSO controls)
T3 construct: purchased Reaction Biology (HotSpot contract assay)
T3 sequence (P10721 26-976 A829P): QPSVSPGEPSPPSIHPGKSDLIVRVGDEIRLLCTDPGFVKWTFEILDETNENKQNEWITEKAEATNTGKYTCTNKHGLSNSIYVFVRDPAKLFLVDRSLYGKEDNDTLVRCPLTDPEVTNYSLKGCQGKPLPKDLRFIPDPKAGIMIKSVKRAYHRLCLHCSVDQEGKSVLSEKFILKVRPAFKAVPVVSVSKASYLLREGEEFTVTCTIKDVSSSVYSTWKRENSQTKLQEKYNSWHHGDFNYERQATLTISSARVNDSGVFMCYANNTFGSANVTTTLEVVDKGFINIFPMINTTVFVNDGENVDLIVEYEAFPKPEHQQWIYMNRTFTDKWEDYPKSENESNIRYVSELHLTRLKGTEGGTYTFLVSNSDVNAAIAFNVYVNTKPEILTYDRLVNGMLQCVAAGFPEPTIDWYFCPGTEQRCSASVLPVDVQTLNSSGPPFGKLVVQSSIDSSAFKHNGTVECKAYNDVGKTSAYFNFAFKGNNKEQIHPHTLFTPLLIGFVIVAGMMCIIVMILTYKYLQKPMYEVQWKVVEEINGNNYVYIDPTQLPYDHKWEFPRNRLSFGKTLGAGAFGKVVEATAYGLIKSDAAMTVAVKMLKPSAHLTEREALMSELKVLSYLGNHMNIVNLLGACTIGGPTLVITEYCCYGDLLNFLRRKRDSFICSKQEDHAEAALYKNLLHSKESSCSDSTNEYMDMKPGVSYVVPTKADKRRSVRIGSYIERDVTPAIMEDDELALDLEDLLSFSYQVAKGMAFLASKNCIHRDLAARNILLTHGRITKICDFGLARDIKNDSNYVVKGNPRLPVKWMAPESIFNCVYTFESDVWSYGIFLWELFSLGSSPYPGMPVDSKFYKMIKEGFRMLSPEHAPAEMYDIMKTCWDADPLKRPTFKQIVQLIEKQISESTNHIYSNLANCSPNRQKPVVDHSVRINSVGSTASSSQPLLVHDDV

382 unique human kinases [4] = target: T4, 382 unique human kinases (Homo sapiens, UniProt Q9NZJ5); settings: EIF2AK3, 10 uM; for remaining activity at 10 µM: read-out: % Enzyme Activity (relative to DMSO controls)
T4 construct: purchased Reaction Biology (HotSpot contract assay)
T4 sequence (Q9NZJ5 30-1116): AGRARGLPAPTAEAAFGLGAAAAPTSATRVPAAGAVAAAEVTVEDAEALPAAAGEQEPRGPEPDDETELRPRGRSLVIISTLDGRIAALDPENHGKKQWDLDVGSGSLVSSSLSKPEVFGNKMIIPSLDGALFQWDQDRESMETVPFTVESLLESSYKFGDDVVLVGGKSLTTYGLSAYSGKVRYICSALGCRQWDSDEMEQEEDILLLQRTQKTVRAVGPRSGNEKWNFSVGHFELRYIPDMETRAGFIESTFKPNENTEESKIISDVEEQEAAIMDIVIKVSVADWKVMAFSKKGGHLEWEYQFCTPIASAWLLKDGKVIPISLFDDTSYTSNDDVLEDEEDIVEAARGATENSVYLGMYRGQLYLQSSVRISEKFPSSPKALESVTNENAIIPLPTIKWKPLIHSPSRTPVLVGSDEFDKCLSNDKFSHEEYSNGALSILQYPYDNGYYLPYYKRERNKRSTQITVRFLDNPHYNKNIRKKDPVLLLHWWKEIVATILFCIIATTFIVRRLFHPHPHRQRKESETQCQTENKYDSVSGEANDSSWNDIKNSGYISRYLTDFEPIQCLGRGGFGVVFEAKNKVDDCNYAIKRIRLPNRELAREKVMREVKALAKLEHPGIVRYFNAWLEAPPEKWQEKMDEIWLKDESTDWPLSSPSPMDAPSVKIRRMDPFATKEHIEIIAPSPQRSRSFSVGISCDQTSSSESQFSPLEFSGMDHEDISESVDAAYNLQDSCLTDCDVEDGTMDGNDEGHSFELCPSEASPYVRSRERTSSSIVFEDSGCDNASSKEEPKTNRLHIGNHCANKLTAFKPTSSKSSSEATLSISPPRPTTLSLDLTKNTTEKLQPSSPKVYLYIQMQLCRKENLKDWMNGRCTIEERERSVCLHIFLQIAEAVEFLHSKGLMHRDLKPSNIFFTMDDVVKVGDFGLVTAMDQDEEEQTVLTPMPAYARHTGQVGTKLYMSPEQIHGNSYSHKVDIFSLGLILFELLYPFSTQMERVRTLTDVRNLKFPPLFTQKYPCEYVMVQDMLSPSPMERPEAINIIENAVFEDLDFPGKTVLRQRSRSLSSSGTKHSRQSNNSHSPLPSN

Row | SMILES | remaining activity at 10 µM (382 unique human kinases [1]) | remaining activity at 10 µM (382 unique human kinases [2]) | % Enzyme Activity (relative to DMSO controls) (382 unique human kinases [3]) | remaining activity at 10 µM (382 unique human kinases [3]) | % Enzyme Activity (relative to DMSO controls) (382 unique human kinases [4]) | remaining activity at 10 µM (382 unique human kinases [4]) | % Enzyme Activity (relative to DMSO controls) (382 unique human kinases [1]) | % Enzyme Activity (relative to DMSO controls) (382 unique human kinases [2])
1 | CC(C)c1cc(-c2n[nH]c(=O)n2-c2ccc3c(ccn3C)c2)c(O)cc1O [Ganetespib (STA9090)] | 89.7% | 66.4% |  |  |  |  |  | 
2 | CCNC(=O)c1noc(-c2cc(C(C)C)c(O)cc2O)c1-c1ccc(CN2CCOCC2)cc1 [Luminespib] |  |  | 84.14% | 85.3% | 103.58% | 104% |  | 
3 | CCNC(=O)c1noc(-c2cc(C(C)C)c(O)cc2O)c1-c1ccc(CN2CCOCC2)cc1 [Luminespib (AUY-922)] | 110% | 98.8% |  |  |  |  | 109.01% | 96.57%
4 | CC(C)c1cc(-c2n[nH]c(=O)n2-c2ccc3c(ccn3C)c2)c(O)cc1O [Ganetespib] |  |  |  | 49.5% |  | 101% |  | 
